Results: the NIST ThermoML archive (doi:10.1016/j.jct.2011.11.021)
± gives the expanded uncertainty stated by the source.

Test: activity coefficient (dimensionless); of the first substance listed, at infinite dilution; xn = mol fraction of the nth substance listed
Details: Liquid, Chromatography, x1 = 0

Row | SMILES | activity coefficient (318.15 K) | activity coefficient (328.15 K) | activity coefficient (338.15 K) | activity coefficient (348.15 K) | activity coefficient (358.15 K) | activity coefficient (368.15 K)
1 | c1ccccc1 [benzene] + COCC[N+]1(C)CCOCC1.O=S(=O)([N-]S(=O)(=O)C(F)(F)F)C(F)(F)F | 1.33 ± 0.09 | 1.32 ± 0.09 | 1.32 ± 0.09 | 1.32 ± 0.09 | 1.31 ± 0.09 | 1.31 ± 0.09
2 | CCCCO [butan-1-ol] + COCC[N+]1(C)CCOCC1.O=S(=O)([N-]S(=O)(=O)C(F)(F)F)C(F)(F)F | 3.31 ± 0.23 | 2.94 ± 0.2 | 2.66 ± 0.18 | 2.4 ± 0.16 | 2.18 ± 0.15 | 2.02 ± 0.14
3 | CCC(C)O (configuration not stated) [butan-2-ol] + COCC[N+]1(C)CCOCC1.O=S(=O)([N-]S(=O)(=O)C(F)(F)F)C(F)(F)F | 2.76 ± 0.19 | 2.47 ± 0.17 | 2.26 ± 0.15 | 2.06 ± 0.14 | 1.9 ± 0.13 | 1.78 ± 0.12
4 | CCCC=O [butanal] + COCC[N+]1(C)CCOCC1.O=S(=O)([N-]S(=O)(=O)C(F)(F)F)C(F)(F)F | 0.871 ± 0.056 | 0.884 ± 0.056 | 0.891 ± 0.057 | 0.902 ± 0.057 | 0.909 ± 0.058 | 0.918 ± 0.058
5 | C1CCCCCC1 [cycloheptane] + COCC[N+]1(C)CCOCC1.O=S(=O)([N-]S(=O)(=O)C(F)(F)F)C(F)(F)F | 26.2 ± 1.8 | 23.6 ± 1.6 | 21.5 ± 1.5 | 19.7 ± 1.3 | 18.1 ± 1.2 | 16.6 ± 1.1
6 | C1CCCCC1 [cyclohexane] + COCC[N+]1(C)CCOCC1.O=S(=O)([N-]S(=O)(=O)C(F)(F)F)C(F)(F)F | 18.8 ± 1.3 | 17 ± 1.2 | 15.6 ± 1.1 | 14.4 ± 1 | 13.3 ± 0.9 | 12.3 ± 0.8
7 | C1=CCCCC1 [cyclohexene] + COCC[N+]1(C)CCOCC1.O=S(=O)([N-]S(=O)(=O)C(F)(F)F)C(F)(F)F | 9.14 ± 0.62 | 8.62 ± 0.59 | 8.21 ± 0.56 | 7.84 ± 0.53 | 7.45 ± 0.51 | 7.08 ± 0.48
8 | C1CCCCCCC1 [cyclooctane] + COCC[N+]1(C)CCOCC1.O=S(=O)([N-]S(=O)(=O)C(F)(F)F)C(F)(F)F | 36.6 ± 2.5 | 32.6 ± 2.2 | 29.6 ± 2 | 26.7 ± 1.8 | 24.2 ± 1.7 | 22.1 ± 1.5
9 | C1CCCC1 [cyclopentane] + COCC[N+]1(C)CCOCC1.O=S(=O)([N-]S(=O)(=O)C(F)(F)F)C(F)(F)F | 12.2 ± 0.8 | 11.2 ± 0.8 | 10.4 ± 0.7 | 9.68 ± 0.66 | 9.1 ± 0.62 | 8.54 ± 0.58
10 | CCCCCCCCCC [decane] + COCC[N+]1(C)CCOCC1.O=S(=O)([N-]S(=O)(=O)C(F)(F)F)C(F)(F)F | 192 ± 13 | 165 ± 11 | 145 ± 10 | 126 ± 9 | 111 ± 8 | 98.2 ± 6.7
11 | CCOCC [diethyl ether] + COCC[N+]1(C)CCOCC1.O=S(=O)([N-]S(=O)(=O)C(F)(F)F)C(F)(F)F | 3.49 ± 0.24 | 3.46 ± 0.24 | 3.44 ± 0.23 | 3.41 ± 0.23 | 3.39 ± 0.23 | 3.37 ± 0.23
12 | CC(C)OC(C)C [diisopropyl ether] + COCC[N+]1(C)CCOCC1.O=S(=O)([N-]S(=O)(=O)C(F)(F)F)C(F)(F)F | 10.1 ± 0.7 | 9.8 ± 0.67 | 9.55 ± 0.65 | 9.26 ± 0.63 | 8.98 ± 0.61 | 8.75 ± 0.6
13 | CCCOCCC [dipropyl ether] + COCC[N+]1(C)CCOCC1.O=S(=O)([N-]S(=O)(=O)C(F)(F)F)C(F)(F)F | 10.7 ± 0.7 | 10.3 ± 0.7 | 9.92 ± 0.68 | 9.56 ± 0.65 | 9.2 ± 0.63 | 8.97 ± 0.61
14 | CCO [ethanol] + COCC[N+]1(C)CCOCC1.O=S(=O)([N-]S(=O)(=O)C(F)(F)F)C(F)(F)F | 1.77 ± 0.12 | 1.61 ± 0.11 | 1.49 ± 0.1 | 1.36 ± 0.09 | 1.26 ± 0.08 | 1.17 ± 0.07
15 | CCOC(C)=O [ethyl acetate] + COCC[N+]1(C)CCOCC1.O=S(=O)([N-]S(=O)(=O)C(F)(F)F)C(F)(F)F | 0.984 ± 0.062 | 1 ± 0.06 | 1.02 ± 0.06 | 1.03 ± 0.06 | 1.04 ± 0.07 | 1.06 ± 0.07
16 | CCc1ccccc1 [ethylbenzene] + COCC[N+]1(C)CCOCC1.O=S(=O)([N-]S(=O)(=O)C(F)(F)F)C(F)(F)F | 3.27 ± 0.22 | 3.21 ± 0.22 | 3.16 ± 0.22 | 3.1 ± 0.21 | 3.04 ± 0.21 | 2.99 ± 0.2

Row | SMILES | activity coefficient (318.15 K) | activity coefficient (328.15 K) | activity coefficient (338.15 K) | activity coefficient (348.15 K) | activity coefficient (358.15 K) | activity coefficient (368.15 K)
17 | CCCCCCC [heptane] + COCC[N+]1(C)CCOCC1.O=S(=O)([N-]S(=O)(=O)C(F)(F)F)C(F)(F)F | 54.4 ± 3.7 | 48.7 ± 3.3 | 43.8 ± 3 | 39.7 ± 2.7 | 36.2 ± 2.5 | 33.1 ± 2.3
18 | C=CCCCC [hex-1-ene] + COCC[N+]1(C)CCOCC1.O=S(=O)([N-]S(=O)(=O)C(F)(F)F)C(F)(F)F | 16.5 ± 1.1 | 15.3 ± 1 | 14.3 ± 1 | 13.6 ± 0.9 | 12.9 ± 0.9 | 12.1 ± 0.8
19 | CCCCCC [hexane] + COCC[N+]1(C)CCOCC1.O=S(=O)([N-]S(=O)(=O)C(F)(F)F)C(F)(F)F | 36.1 ± 2.5 | 32.6 ± 2.2 | 29.8 ± 2 | 27.2 ± 1.9 | 25 ± 1.7 | 23.1 ± 1.6
20 | CO [methanol] + COCC[N+]1(C)CCOCC1.O=S(=O)([N-]S(=O)(=O)C(F)(F)F)C(F)(F)F | 1.28 ± 0.08 | 1.18 ± 0.08 | 1.1 ± 0.07 | 1.02 ± 0.06 | 0.95 ± 0.06 | 0.897 ± 0.057
21 | CCCC(=O)OC [methyl butanoate] + COCC[N+]1(C)CCOCC1.O=S(=O)([N-]S(=O)(=O)C(F)(F)F)C(F)(F)F | 1.42 ± 0.09 | 1.44 ± 0.09 | 1.45 ± 0.1 | 1.45 ± 0.1 | 1.46 ± 0.1 | 1.48 ± 0.1
22 | COC(C)=O [methyl ethanoate] + COCC[N+]1(C)CCOCC1.O=S(=O)([N-]S(=O)(=O)C(F)(F)F)C(F)(F)F | 0.684 ± 0.046 | 0.7 ± 0.047 | 0.714 ± 0.048 | 0.729 ± 0.048 | 0.74 ± 0.049 | 0.754 ± 0.05
23 | CCC(=O)OC [methyl propanoate] + COCC[N+]1(C)CCOCC1.O=S(=O)([N-]S(=O)(=O)C(F)(F)F)C(F)(F)F | 0.949 ± 0.06 | 0.966 ± 0.061 | 0.982 ± 0.062 | 0.998 ± 0.062 | 1.01 ± 0.06 | 1.03 ± 0.06
24 | CC1CCCCC1 [methylcyclohexane] + COCC[N+]1(C)CCOCC1.O=S(=O)([N-]S(=O)(=O)C(F)(F)F)C(F)(F)F | 27.6 ± 1.9 | 24.8 ± 1.7 | 22.8 ± 1.6 | 20.9 ± 1.4 | 19.2 ± 1.3 | 17.7 ± 1.2
25 | CCCCCCCCC [nonane] + COCC[N+]1(C)CCOCC1.O=S(=O)([N-]S(=O)(=O)C(F)(F)F)C(F)(F)F | 125 ± 9 | 108 ± 7 | 95.8 ± 6.6 | 85.6 ± 5.9 | 76.3 ± 5.2 | 68.7 ± 4.7
26 | C=CCCCCCC [oct-1-ene] + COCC[N+]1(C)CCOCC1.O=S(=O)([N-]S(=O)(=O)C(F)(F)F)C(F)(F)F | 38.6 ± 2.6 | 34.9 ± 2.4 | 32.5 ± 2.2 | 30.1 ± 2.1 | 27.5 ± 1.9 | 25.9 ± 1.8
27 | CCCCCCCC [octane] + COCC[N+]1(C)CCOCC1.O=S(=O)([N-]S(=O)(=O)C(F)(F)F)C(F)(F)F | 82.1 ± 5.6 | 71.6 ± 4.9 | 64.6 ± 4.4 | 58.4 ± 4 | 51.7 ± 3.5 | 47.3 ± 3.2
28 | CCCC(C)=O [pentan-2-one] + COCC[N+]1(C)CCOCC1.O=S(=O)([N-]S(=O)(=O)C(F)(F)F)C(F)(F)F | 0.88 ± 0.056 | 0.89 ± 0.057 | 0.9 ± 0.057 | 0.91 ± 0.058 | 0.918 ± 0.058 | 0.925 ± 0.058
29 | CCC(=O)CC [pentan-3-one] + COCC[N+]1(C)CCOCC1.O=S(=O)([N-]S(=O)(=O)C(F)(F)F)C(F)(F)F | 0.895 ± 0.057 | 0.912 ± 0.058 | 0.927 ± 0.059 | 0.941 ± 0.059 | 0.952 ± 0.06 | 0.967 ± 0.061
30 | CCCCC [pentane] + COCC[N+]1(C)CCOCC1.O=S(=O)([N-]S(=O)(=O)C(F)(F)F)C(F)(F)F | 25 ± 1.7 | 22.5 ± 1.5 | 20.6 ± 1.4 | 19 ± 1.3 | 17.4 ± 1.2 | 16.3 ± 1.1
31 | CCCO [propan-1-ol] + COCC[N+]1(C)CCOCC1.O=S(=O)([N-]S(=O)(=O)C(F)(F)F)C(F)(F)F | 2.39 ± 0.16 | 2.14 ± 0.15 | 1.96 ± 0.13 | 1.79 ± 0.12 | 1.63 ± 0.11 | 1.52 ± 0.1
32 | CC(C)O [propan-2-ol] + COCC[N+]1(C)CCOCC1.O=S(=O)([N-]S(=O)(=O)C(F)(F)F)C(F)(F)F | 2.17 ± 0.15 | 1.95 ± 0.13 | 1.79 ± 0.12 | 1.63 ± 0.11 | 1.5 ± 0.1 | 1.4 ± 0.09
